Measured values as given in patent US20250034186A1, “ANTIVIRAL COMPOUNDS” (priority 2020, published 2025).

Experiments:
RSV strain A2 = assay: RSV HEp-2 EC50, infectious cytopathic cell protection assay; format: cell-based; details: for EC50: human respiratory syncytial virus, 96 h, RSV A2 in HEp-2 cells, 4 days, Cell TiterGlo
Method: Antiviral activity against RSV is determined using an infectious cytopathic cell protection assay in HEp-2 cells. In this assay, compounds inhibiting viral infection and/or replication produce a cytoprotective effect against the virus-induced cell killing that can be quantified using a cell viability reagent. The techniques used here are novel adaptations of methods described in published literature (Chapman et al., Antimicrob Agents Chemother. 2007, 51(9):3346-53.).
HEp-2 cells are obtained from ATCC (Manassas, VI) and maintained in MEM media supplemented with 10% fetal bovine serum and penicillin/streptomycin. Cells are passaged twice a week and kept at subconfluent stage. Commercial stock of RSV strain A2 (Advanced Biotechnologies, Columbia, MD) is titered before compound testing to determine the appropriate dilution of the virus stock that generates desirable cytopathic effect in HEp-2 cells.
For antiviral tests, HEp-2 cells are grown in large cell culture flasks to near confluency but not fully so. The compounds to be tested are prediluted in DMSO in 384-well compound dilution plates, either in an 8 or 40 sample per plate standardized dose response format. 3-fold serial dilution increments of each test compound are prepared in the plates and test samples are transferred via acoustic transfer apparatus (Echo, Labcyte) at 100 nL per well into cell culture assay 384-well plates. Each compound dilution is transferred in single or quadruplicate samples into dry assay plates, which are stored until assay is ready to go. The positive and negative controls are laid out in opposite on ends of the plate in vertical blocks (1 column).
Subsequently, an infectious mixture is prepared using an appropriate dilution of virus stock previously determined by titration with cells at a density of 50,000/mL and 20 μL/well is added to test plates w/compounds via automation (uFlow, Biotek). Each plate includes negative and positive controls (16 replicates each) to create 0% and 100% virus inhibition standards, respectively. Following the infection with RSV, testing plates are incubated for 4 days in a 37° C. cell culture incubator. After the incubation, a cell viability reagent, Cell TiterGlo (Promega, Madison, WI) is added to the assay plates, which are incubated briefly, and a luminescent readout is measured (Envision, Perkin Elmer) in all the assay plates. The RSV-induced cytopathic effect, percentage inhibition, is determined from the levels of remaining cell viability. […] Various potent anti-RSV tool compounds are used as positive controls for antiviral activity.

HRV16 = HRV16 HeLa EC50; format: cell-based, human rhinovirus; details: for EC50: Human rhinovirus sp., HRV16, H1-HeLa cells, 96 h, 33° C.
Method: H1-HeLa cells, cultured in complete DMEM medium containing 10% heat-inactivated FBS and 1% Penicillin/Streptomycin, were seeded in 96 well plates at 3000 cells/well one day prior to compound dosing and infection. The antiviral activity of each compound was measured in triplicate. Compounds were added directly to the cell cultures in serial 3-fold dilutions using the HP300 digital dispenser (Hewlett Packard, Palo Alto, CA) immediately prior to infection. The plates were transferred to BSL-2 containment and the appropriate dilution of virus stock, previously determined by titration and prepared in cell culture media, was added to test plates containing cells and serially diluted compounds. Each plate included 6 wells of infected untreated cells and 6 wells of uninfected cells that served as 0% and 100% virus inhibition control, respectively. Following the infection, test plates were incubated for 96 h in a tissue culture incubator set to 33° C./5% CO2. Following incubation, the H1-HeLa cells were removed from incubation and allowed to equilibrate to 25° C. Cell viability was determined by removing 100 μL of culture medium and adding 100 μL of Cell-Titer Glo viability reagent. The mixtures were incubated on a shaker for 10 minutes at 25° C., and the luminescence signal was quantified on an Envision luminescence plate reader.

HEp-2 cytotoxicity assay = format: cell-based; details: human, HEp-2 cells (uninfected), 4-5 days
Method: (§1) Cytotoxicity of the compound of Formula I and compounds 1, 2, and 6 was determined in uninfected cells using the cell viability reagent in a similar fashion as described before for other cell types (Cihlar et al., Antimicrob Agents Chemother. 2008, 52(2):655-65.). HEp-2 (1.5×10^3 cells/well) and MT-4 (2×10^3 cells/well) cells were plated in 384-well plates and incubated with the appropriate medium containing 3-fold serially diluted compound ranging from 15 nM to 100,000 nM. Cells were cultured for 4-5 days at 37° C. Following the incubation, the cells were allowed to equilibrate to 25° C., and cell viability was determined by adding Cell-Titer Glo viability reagent. The mixture was incubated for 10 min, and the luminescence signal was quantified using an Envision plate reader. Untreated cell and cells treated at 2 μM puromycin (Sigma, St. Louis, MO) serve as 100% and 0% cell viability control, respectively.

MT-4 cytotoxicity assay = format: cell-based; details: human, MT-4 cells (uninfected), 4-5 days, read-out: CC50 MT4
Method: as §1

Huh-7 cytotoxicity assay = format: cell-based; details: human, Huh7 cells
Method: (§2) Compounds were tested in a high-throughput 384-well assay format for cytotoxicity in Huh7 cells (Hepatocarcinoma cell line). Cells were diluted in media (DMEM (15-018-CM), 10% FBS, 1% NEAA, 1% PSG) to 16.6K cells/mL and plated at 90 uL/well into 384 well poly-D-lysine coated assay plates and placed in an incubator at 37° C. and 5% CO2. Compounds were serially diluted (1:3) in 100% DMSO in 384-well plates in quadruplicate. DMSO and 2 mM Puromycin were included as negative and positive controls respectively. 24 hours after cell plating, a 384 channel pipettor was used to transfer 0.4 uL from the compound plate to the assay plate. Assay plates were returned to the incubator. After 5 days, assay plates were washed with 80 uL/well of PBS before addition of 20 μL of Cell Titer Glo. Assay plates were read on the Envision plate reader. […] CC50 values were calculated in Accord (on-line tool) using a one-site dose-response model to generate sigmoidal curve fits.

MRC5 cytotoxicity assay = format: cell-based; details: human, MRC5 cells
Method: as §2, with “MRC5” for “Huh7”, “(human fetal lung fibroblast” for “(Hepatocarcinoma”, “(MEM (10-010-CM),” for “(DMEM (15-018-CM),”, “FBS,” for “FBS, 1% NEAA,”

Structure (SMILES) | times more potent than the compound of Formula Ib, RSV HEp-2 (RSV strain A2; EC50 ratio vs Formula Ib) [times] | more potent relative to compound 1, RSV Hep-2 (RSV strain A2; EC50 ratio vs compound 1) | times more potent relative to compound 3, RSV Hep-2 (RSV strain A2; EC50 ratio vs compound 3) | times more potent relative to compound 4, RSV Hep-2 (RSV strain A2; EC50 ratio vs compound 4) | times more potent relative to compound 5, RSV Hep-2 (RSV strain A2; EC50 ratio vs compound 5) | EC50 (RSV strain A2) [µM] | times more potent than the compound of Formula Ib, HRV16 HeLa (HRV16; EC50 ratio vs Formula Ib) [times] | times more potent relative to compound 1, HRV16 HeLa (HRV16; EC50 ratio vs compound 1) | times more potent relative to compound 3, HRV16 HeLa (HRV16; EC50 ratio vs compound 3) | times more potent relative to compound 4, HRV16 Hela (HRV16; EC50 ratio vs compound 4) | times more potent relative to compound 5, HRV16 HeLa (HRV16; EC50 ratio vs compound 5) | EC50 (HRV16) [µM] | CC50 (HEp-2 cytotoxicity assay) [µM] | CC50 (MT-4 cytotoxicity assay) [µM] | CC50 at 5 days (Huh-7 cytotoxicity assay) [µM] | CC50 at 5 days (MRC5 cytotoxicity assay) [µM] | times more potent than compound 7, RSV HEp-2 (RSV strain A2; EC50 ratio vs compound 7) [times] | times more potent than compound 7, HRV16 HeLa (HRV16; EC50 ratio vs compound 7) [times]
C[C@H](N[P@](=O)(OC[C@@]1(C#N)O[C@@H](c2ccc3c(N)ncnn23)[C@H](O)[C@@H]1O)Oc1ccccc1)C(=O)OC1CCCCC1 [Formula I, cyclohexyl ((S)-(((2R,3S,4R,5S)-5-(4-aminopyrrolo[2,1-f][1,2,4]triazin-7-yl)-2-cyano-3,4-dihydroxytetrahydrofuran-2-yl)methoxy)(phenoxy)phosphoryl)-L-alaninate] | 31.1 | about 4.0 | about 5 times | about 3.9 times | about 19.8 times | 0.088 | 2.9 | about 4.2 times | about 6.2 times | about 4.3 times | about 13.8 times | 0.227 | > 100 | 56.2 | > 88.9 | > 44.4 | – | –
CCC(CC)COC(=O)[C@H](C)N[P@](=O)(OC[C@@]1(C#N)O[C@@H](c2ccc3c(N)ncnn23)[C@H](O)[C@@H]1O)Oc1ccccc1 [Compound 6, 2-ethylbutyl ((S)-(((2R,3S,4R,5S)-5-(4-aminopyrrolo[2,1-f][1,2,4]triazin-7-yl)-2-cyano-3,4-dihydroxytetrahydrofuran-2-yl)methoxy)(phenoxy)phosphoryl)alaninate] | – | – | – | – | – | 0.026 | – | – | – | – | – | 0.135 | > 95 | 38.8 | 17.2 | > 88.4 | 4.8 | 1.4
CCOC(=O)[C@H](C)NP(=O)(OC[C@@]1(C#N)O[C@@H](c2ccc3c(N)ncnn23)[C@H](O)[C@@H]1O)Oc1ccccc1 (stereo partly drawn) [Compound 1, reference compound] | – | – | – | – | – | 0.352 | – | – | – | – | – | 0.959 | > 91.5 | 52.4 | > 44.4 | > 44.4 | – | –
CCC(CC)COC(=O)[C@H](C)NP(=O)(OC[C@@]1(C#N)O[C@@H](c2ccc3c(N)ncnn23)[C@H](O)[C@@H]1O)Oc1ccccc1 (stereo partly drawn) [Compound 2, reference compound] | – | – | – | – | – | 0.069 | – | – | – | – | – | 0.164 | > 95.4 | > 43.7 | > 44.4 | > 44.4 | – | –
